Here are results for 3 molecules from PubChem BioAssay AID1259407 (Chemical Carcinogenesis Research Information System (CCRIS), 2018).

SMILES strings stand for the structures. Calls of active or inactive are those of the source. The rule behind the calls is not given here.

The test system of the data set is CCRIS mutagenicity, Ames/micronucleus/aberration tests. The experiment in a line: CCRIS mutagenicity studies.
[1] abbreviates: Test System: AMES SALMONELLA TYPHIMURIUM, Strain/Indicator: TA98, Metabolic Activation: NONE, Method: STANDARD PLATE.
Setting [2] is: Test System: AMES SALMONELLA TYPHIMURIUM, Strain/Indicator: TA100, Metabolic Activation: NONE, Method: STANDARD PLATE.

For the molecule `CC(C)(C#N)N=NC(C)(C)C#N`, the mutagenic call by setting is: (Test System: AMES SALMONELLA TYPHIMURIUM, Strain/Indicator: TA98, Metabolic Activation: HAMSTER, LIVER, S-9, AROCLOR 1254, Method: PREINCUBATION) “inactive; negative”; (Test System: AMES SALMONELLA TYPHIMURIUM, Strain/Indicator: TA98, Metabolic Activation: NONE, Method: PREINCUBATION) “inactive; negative”; (Test System: AMES SALMONELLA TYPHIMURIUM, Strain/Indicator: TA98, Metabolic Activation: RAT LIVER S-9, PHENOBARBITAL AND BETA-NAPHTHOFLAVONE, Method: PREINCUBATION) “inactive; negative”; (Test System: AMES SALMONELLA TYPHIMURIUM, Strain/Indicator: TA98, Metabolic Activation: RAT, LIVER, S-9, AROCLOR 1254, Method: PREINCUBATION) “inactive; negative”; (Test System: AMES SALMONELLA TYPHIMURIUM, Strain/Indicator: TA100, Metabolic Activation: HAMSTER, LIVER, S-9, AROCLOR 1254, Method: PREINCUBATION) “inactive; negative”; (Test System: AMES SALMONELLA TYPHIMURIUM, Strain/Indicator: TA100, Metabolic Activation: NONE, Method: PREINCUBATION) “inactive; negative”. For the same molecule, the mutagenic call (Test System: AMES SALMONELLA TYPHIMURIUM, Strain/Indicator: TA100, Metabolic Activation: RAT LIVER S-9, PHENOBARBITAL AND BETA-NAPHTHOFLAVONE, Method: PREINCUBATION) was “inactive; negative”; the mutagenic call (Test System: AMES SALMONELLA TYPHIMURIUM, Strain/Indicator: TA100, Metabolic Activation: RAT, LIVER, S-9, AROCLOR 1254, Method: PREINCUBATION) is “inactive; negative”; the mutagenic call (Test System: AMES SALMONELLA TYPHIMURIUM, Strain/Indicator: TA1535, Metabolic Activation: HAMSTER, LIVER, S-9, AROCLOR 1254, Method: PREINCUBATION) was “inactive; negative”; the mutagenic call (Test System: AMES SALMONELLA TYPHIMURIUM, Strain/Indicator: TA1535, Metabolic Activation: NONE, Method: PREINCUBATION) is “inactive; negative”; the mutagenic call (Test System: AMES SALMONELLA TYPHIMURIUM, Strain/Indicator: TA1535, Metabolic Activation: RAT LIVER S-9, PHENOBARBITAL AND BETA-NAPHTHOFLAVONE, Method: PREINCUBATION) is “inactive; negative”; the mutagenic call (Test System: AMES SALMONELLA TYPHIMURIUM, Strain/Indicator: TA1535, Metabolic Activation: RAT, LIVER, S-9, AROCLOR 1254, Method: PREINCUBATION) was “inactive; negative”. In addition, the mutagenic call is, setting by setting: (Test System: AMES SALMONELLA TYPHIMURIUM, Strain/Indicator: TA1537, Metabolic Activation: HAMSTER, LIVER, S-9, AROCLOR 1254, Method: PREINCUBATION) “inactive; negative”; (Test System: AMES SALMONELLA TYPHIMURIUM, Strain/Indicator: TA1537, Metabolic Activation: NONE, Method: PREINCUBATION) “inactive; negative”; (Test System: AMES SALMONELLA TYPHIMURIUM, Strain/Indicator: TA1537, Metabolic Activation: RAT LIVER S-9, PHENOBARBITAL AND BETA-NAPHTHOFLAVONE, Method: PREINCUBATION) “inactive; negative”; (Test System: AMES SALMONELLA TYPHIMURIUM, Strain/Indicator: TA1537, Metabolic Activation: RAT, LIVER, S-9, AROCLOR 1254, Method: PREINCUBATION) “inactive; negative”; (Test System: AMES SALMONELLA TYPHIMURIUM, Strain/Indicator: TA1538, Metabolic Activation: HAMSTER, LIVER, S-9, AROCLOR 1254, Method: PREINCUBATION) “inactive; negative”; (Test System: AMES SALMONELLA TYPHIMURIUM, Strain/Indicator: TA1538, Metabolic Activation: NONE, Method: PREINCUBATION) “inactive; negative”. Besides, the mutagenic call is “inactive; negative” (Test System: AMES SALMONELLA TYPHIMURIUM, Strain/Indicator: TA1538, Metabolic Activation: RAT LIVER S-9, PHENOBARBITAL AND BETA-NAPHTHOFLAVONE, Method: PREINCUBATION); “inactive; negative” (Test System: AMES SALMONELLA TYPHIMURIUM, Strain/Indicator: TA1538, Metabolic Activation: RAT, LIVER, S-9, AROCLOR 1254, Method: PREINCUBATION); “inactive; negative” (Test System: E.COLI, Strain/Indicator: WP2UVRA, Metabolic Activation: NONE, Method: PREINCUBATION); “inactive; negative” (Test System: E.COLI, Strain/Indicator: WP2UVRA, Metabolic Activation: RAT LIVER S-9, PHENOBARBITAL AND BETA-NAPHTHOFLAVONE, Method: PREINCUBATION); “inactive; negative. reevaluation of results: negative” (Test System: MOUSE LYMPHOMA, Strain/Indicator: L5178Y (TK+/TK-), Metabolic Activation: NONE, Method: SUSPENSION/PLATE); “inactive; negative. reevaluation of results: negative” (Test System: MOUSE LYMPHOMA, Strain/Indicator: L5178Y (TK+/TK-), Metabolic Activation: RAT, LIVER, S-9, AROCLOR 1254, Method: SUSPENSION/PLATE).
For the molecule `CC1=C(/C=C/C(C)=C/C=C/C(C)=C/C=C/C=C(C)/C=C/C=C(C)/C=C/C2=C(C)CCCC2(C)C)C(C)(C)CCC1`, the mutagenic call is “active; positive” (End Point: IN VITRO CHROMOSOMAL ABERRATIONS, Test System: F344 FEMALE RAT HEPATOCYTE, Metabolic Activation: NONE); “active; positive” (End Point: IN VITRO MICRONUCLEUS, Test System: F344 FEMALE RAT HEPATOCYTES, Metabolic Activation: NONE); “inactive; negative” (Test System: AMES SALMONELLA TYPHIMURIUM, Strain/Indicator: TA97, Metabolic Activation: NONE, Method: PREINCUBATION); “inactive; negative” (Test System: AMES SALMONELLA TYPHIMURIUM, Strain/Indicator: TA97, Metabolic Activation: S-9, Method: PREINCUBATION); “inactive; negative” under setting [1]; “inactive; negative” (Test System: AMES SALMONELLA TYPHIMURIUM, Strain/Indicator: TA98, Metabolic Activation: RAT, LIVER, S-9, AROCLOR 1254, Method: STANDARD PLATE). Moreover, the mutagenic call runs as follows: under setting [2], “inactive; negative”; (Test System: AMES SALMONELLA TYPHIMURIUM, Strain/Indicator: TA100, Metabolic Activation: RAT, LIVER, S-9, AROCLOR 1254, Method: STANDARD PLATE) “inactive; negative”; (Test System: AMES SALMONELLA TYPHIMURIUM, Strain/Indicator: TA102, Metabolic Activation: NONE, Method: PREINCUBATION) “inactive; negative”; (Test System: AMES SALMONELLA TYPHIMURIUM, Strain/Indicator: TA102, Metabolic Activation: S-9, Method: PREINCUBATION) “inactive; negative”.
Turning to `CN1CCN(c2ccc3nc(CCCc4ccc5nc(-c6ccc(N(CCCl)CCCl)cc6)[nH]c5c4)[nH]c3c2)CC1`, the mutagenic call by setting is: under setting [1], “inactive; negative”; under setting [2], “inactive; negative”; (Test System: AMES SALMONELLA TYPHIMURIUM, Strain/Indicator: TA102, Metabolic Activation: NONE, Method: STANDARD PLATE) “active; positive”.
